Assay results: patent publication US8916526B2, “Flavanone derivative” (National University Corporation Okayama University, priority 2009, dated 2014)
In brackets after ≈: the same amount, converted by molar mass.

Legend:
MRSA N315 = assay: In vitro infectivity assay (MIC), broth dilution, Exp. Ex. 1-1; format: cell-based, Staphylococcus aureus; conditions: Staphylococcus aureus; MRSA N315; Mueller-Hinton broth, 35° C., 24 hours; read-out: MIC MRSA N315
Procedure, shortened: (§1)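 Antibacterial activity was determined by the CLSI broth dilution technique. Bacteria at about 10^5 CUF/[…] grew in Mueller-Hinton broth containing 0.85% NaCl for 24 hours at 35° C., and minimum inhibitory concentrations were recorded from three measurements.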

MRSA OM481 = assay: as above; format: cell-based, Staphylococcus aureus; conditions: Staphylococcus aureus; MRSA OM481; Mueller-Hinton broth, 35° C., 24 hours; read-out: MIC MRSA OM481
Procedure, shortened: as §1

MRSA OM58 = assay: as above; format: cell-based, Staphylococcus aureus; conditions: Staphylococcus aureus; MRSA OM58; Mueller-Hinton broth, 35° C., 24 hours; read-out: MIC MRSA OM58
Procedure, shortened: as §1

MSSA FDA 209P = assay: as above; format: cell-based, Staphylococcus aureus; conditions: Staphylococcus aureus; MSSA FDA 209P; Mueller-Hinton broth, 35° C., 24 hours; read-out: MIC MSS 209P
Procedure, shortened: as §1

VISA Mu50 = assay: as above; format: cell-based, Staphylococcus aureus; conditions: Staphylococcus aureus; VISA Mu50; Mueller-Hinton broth, 35° C., 24 hours; read-out: MIC VISA Mu50
Procedure, shortened: as §1

VRE FN-1 = assay: as above; format: cell-based, enterococci; conditions: Enterococcus; VRE FN-1; Mueller-Hinton broth, 35° C., 24 hours; read-out: MIC VRE FN-1
Procedure, shortened: as §1

VRE NCTC12201 = assay: as above; format: cell-based, enterococci; conditions: Enterococcus; VRE NCTC12201; Mueller-Hinton broth, 35° C., 24 hours; read-out: MIC VRE NCTC12201
Procedure, shortened: as §1

[1] = target: T1, DNA gyrase of Escherichia coli (Escherichia coli, UniProt P0AES4+P0AES6); assay: DNA gyrase inhibition (supercoiling assay kit), Exp. Ex. 1-2; format: biochemical; conditions: E. coli DNA gyrase supercoiling, relaxed pBR322, 37° C., 30 minutes; read-out: Gyrase inhibitory activity IC50 (converted)
T1 construct: purchased John Innes Enterprises #K0001
Procedure, shortened: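 Relaxed pBR322 DNA […] supercoiled by 1 U E. coli gyrase for 30 min at 37 °C in 35 mM Tris-HCl pH 7.5, 24 mM KCl, 4 mM MgCl2, 2 mM DTT, 1.8 mM spermidine, 1 mM ATP, 6.5% glycerol, 0.1 mg/ml BSA. Products resolved by gel electrophoresis; IC50 determined.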

[2] = system: Methicillin sensitive S. aureus 209P; assay: In vitro infectivity assay (MIC), Exp. Ex. 2-1; format: cell-based, Staphylococcus aureus; conditions: Staphylococcus aureus, 209P / MSSA; Gram-positive; microdilution, MIC after 24 h; read-out: MIC MSSA 209P
Procedure, shortened: (§2)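 Activity is expressed as MIC under CLSI broth dilution, using a starting inoculum near 10^5 CUF/[…] in Mueller-Hinton medium plus 0.85% NaCl; plates sit at 35° C for 24 hours, three measurements.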

[3] = system: Methicillin-resistant S. aureus COL; assay: In vitro infectivity assay (MIC), Exp. Ex. 2-1; format: cell-based, Staphylococcus aureus; conditions: Staphylococcus aureus, MRSA; Gram-positive; microdilution, MIC after 24 h
[4] = system: Methicillin-resistant S. aureus N315; assay: In vitro infectivity assay (MIC), Exp. Ex. 2-1; format: cell-based, Staphylococcus aureus; conditions: Staphylococcus aureus, MRSA; Gram-positive; microdilution, MIC after 24 h; read-out: MIC MRSA N315
Procedure, shortened: as §2

[5] = system: Methicillin-resistant S. aureus OM481; assay: In vitro infectivity assay (MIC), Exp. Ex. 2-1; format: cell-based, Staphylococcus aureus; conditions: Staphylococcus aureus, MRSA; Gram-positive; microdilution, MIC after 24 h; read-out: MIC MRSA OM481
Procedure, shortened: as §2

[6] = system: Methicillin-resistant S. aureus OM584; assay: In vitro infectivity assay (MIC), Exp. Ex. 2-1; format: cell-based, Staphylococcus aureus; conditions: Staphylococcus aureus, MRSA; Gram-positive; microdilution, MIC after 24 h; read-out: MIC MRSA OM584
Procedure, shortened: as §2

[7] = system: Streptococcus pneumoniae R6; assay: In vitro infectivity assay (MIC), Exp. Ex. 2-1; format: cell-based; conditions: Streptococcus pneumoniae, R6; Gram-positive; microdilution, MIC after 24 h; read-out: MIC S. Pneumoniae R6
Escherichia coli K-12 = assay: Antibacterial activity (MIC) against Gram-negative strains, microdilution; format: cell-based; conditions: K12, MIC after 24 h, read-out: MIC (Gram-nagative) K-12
Procedure, shortened: (§3)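 CLSI broth microdilution in Mueller-Hinton broth with 0.85% NaCl, inoculum about 10^5 […]. Incubated 35° C for 24 hours; MIC taken as the minimum inhibitory concentration, measured three times.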

[8] = system: Pseodomonas aeruginosa PAOI; assay: as above; format: cell-based; conditions: MIC after 24 h, read-out: MIC (Gram-nagative) PAO1
Procedure, shortened: as §3

T1 sequence (P0AES4 whole entry, one chain of several): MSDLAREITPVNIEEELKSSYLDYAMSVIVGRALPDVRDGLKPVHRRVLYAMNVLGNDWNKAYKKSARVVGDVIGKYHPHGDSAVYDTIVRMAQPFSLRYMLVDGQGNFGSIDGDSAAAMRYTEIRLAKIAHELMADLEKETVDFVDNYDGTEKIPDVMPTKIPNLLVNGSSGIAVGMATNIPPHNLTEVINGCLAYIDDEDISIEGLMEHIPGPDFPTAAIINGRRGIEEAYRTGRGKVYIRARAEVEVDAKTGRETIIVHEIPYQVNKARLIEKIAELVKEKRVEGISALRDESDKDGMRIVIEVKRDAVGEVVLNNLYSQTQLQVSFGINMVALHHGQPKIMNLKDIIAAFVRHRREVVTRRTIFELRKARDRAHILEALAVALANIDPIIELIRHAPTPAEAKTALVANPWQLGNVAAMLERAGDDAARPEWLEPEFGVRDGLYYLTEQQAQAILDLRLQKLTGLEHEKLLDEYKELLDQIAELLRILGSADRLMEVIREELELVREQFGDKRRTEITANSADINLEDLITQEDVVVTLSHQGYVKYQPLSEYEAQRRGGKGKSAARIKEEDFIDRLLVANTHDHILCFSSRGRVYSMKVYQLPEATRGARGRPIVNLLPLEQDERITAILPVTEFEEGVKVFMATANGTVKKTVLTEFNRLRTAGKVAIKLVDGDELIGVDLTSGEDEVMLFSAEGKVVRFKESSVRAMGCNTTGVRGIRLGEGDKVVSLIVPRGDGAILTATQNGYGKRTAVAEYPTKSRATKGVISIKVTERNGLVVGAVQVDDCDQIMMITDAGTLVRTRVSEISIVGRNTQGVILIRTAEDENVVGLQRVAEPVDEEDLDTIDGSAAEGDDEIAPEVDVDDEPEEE

Which results are given for `O=c1c(O)c(-c2ccc(O)c(O)c2)oc2cc(O)cc(O)c12` [Quercetin, quercetin, reference compound]?
MIC (MRSA N315): > 128 µg/mL; MIC (MRSA OM481): > 128 µg/mL; MIC (MRSA OM58): > 128 µg/mL; MIC (MSSA FDA 209P): > 128 µg/mL; MIC (VISA Mu50): > 128 µg/mL; MIC (VRE FN-1): > 128 µg/mL; MIC (VRE NCTC12201): > 128 µg/mL; IC50 [1]: 2.61 µM; MIC [2]: > 128 µg/mL; MIC [3]: > 128 µg/mL; MIC [4]: > 128 µg/mL; MIC [5]: > 128 µg/mL; MIC [6]: > 128 µg/mL; MIC [7]: > 128 µg/mL; MIC (Escherichia coli K-12): 64 µg/mL (≈ 212 µM); MIC [8]: > 128 µg/mL
